SMILES strings stand for the structures.

Common to all, as to type: cell-based, human
Data set [1] deals with GM5387 (fibroblasts). Kind of data set: trypan blue exclusion, GM5387. Conditions: GM5387, after taurolidine treatment. As to the method: FIGS. 11A and 11B depict cell viability and growth rates for GM5387 cell line following taurolidine treatment, in terms of % trypan blue negative cells and % cell number, respectively. Cells were treated with various concentrations of taurolidine for 4 hours in AIM-V+0.01% BCS. After aliquots were collected for LDH assay, the remainder of the culture was rinsed in HBSS and resuspended in RPMI+10% BCS without taurolidine. Counts of trypan blue-negative cells (FIG. 11A), and total cell number (FIG. 11B), were recorded daily thereafter (with the measurement at Day 1 being made immediately after the 4 hour taurolidine treatment). Conditions were: no treatment (open circles); 25 μg/ml taurolidine (closed circles); 50 μg/ml taurolidine (open squares); 100 μg/ml taurolidine (closed squares); and vehicle alone (closed triangles). Doubling times were determined under each condition, and expressed as a percentage of the rate of doubling of untreated cells. These values are located to the right of the growth curves in (FIG. 11B). […]
HL-60 cells treated with 50 μl taurolidine. In these samples, LDH present in the culture medium was 8.3±2.3% of that released by completely lysed cells, compared with 2.3±0.8% measured in control cultures. […] After 4 hour treatment, cells were rinsed and returned to growth medium and monitored for viability and growth over the following 3 days. […]

Data set [2] has as its system peripheral blood monocytes. Kind of data set: cell size by flow cytometry (FSC), peripheral blood monocytes. Conditions: taurolidine 6 h. As to the method: FIG. 12A, FIG. 12B, FIG. 12C, and FIG. 12D are flow cytometric analyses depicting changes in cell morphology following taurolidine treatment. MM6 and PBMC were treated for three hours with taurolidine, and then treated and untreated control cells were processed for flow cytometry. Monocytes in PBMC samples were identified by staining with FITC-conjugated anti-CD14, and lymphocytes by FITC-conjugated anti-CD3 and PE-conjugated anti-CD19. FIG. 12A represents untreated MM6 cells; FIG. 12B represents MM6 cells treated with 50 μg/ml taurolidine; FIG. 12C represents untreated PBMC; and FIG. 12D represents PBMC treated with 75 μg/ml taurolidine. M=monocytes; L=lymphocytes.
A Becton-Dickinson FACSCalibur instrument was used for flow cytometric analysis of cells. Assessment of cell diameter (forward scatter; FCS) and granularity (side scatter; SSC).was carried out on unfixed cells. Discrimination between lymphocytes and monocytes was made possible by their characteristic differences in FSC and SSC, and confirmed by staining monocytes with FITC-labeled anti-CD14 antibodies and lymphocytes with a combination of FITC-conjugated anti-CD3 and PE-conjugated anti-CD19. After incubation with taurolidine (with or without concomitant LPS treatment), cells were rinsed twice in phosphate-buffered saline containing 0.1% bovine serum albumin (PBSA) and 1×10^6 cells were resuspended in 0.1 ml PBSA. […]

Data set [3] relates to Lymphocytes. In words: TUNEL flow cytometry, lymphocytes in PBMC, culture medium. Conditions: 6 h. As to the method:
FIG. 14A and FIG. 14B are terminal deoxytransferase-mediated deoxyuridine-triphosphate-biotin nick end labeling assay (TUNEL) analyses of control cells and taurolidine-treated PBMC, respectively. Cells were incubated with 100 μg/ml taurolidine for six hours and processed for TUNEL analysis as given below. Parallel samples were stained with FITC-conjugated anti-CD14 and propidium iodide (PI) as described below. Ten thousand events were recorded per sample. TUNEL signal (x-axis) is a measure of DNA fragmentation, which FSC (y-axis) is related to cell size. TUNEL-negative lymphocytes are bounded by the rectangle R1, while TUNEL-negative monocytes (CD14 positive cells) are bounded by the rectangle R2. The vertical line indicates demarcation between TUNEL-negative and TUNEL-positive cells. There were minimal numbers of PI-positive cells in the six hour samples (see Table IV).
In the second method, DNA fragmentation was detected via TUNEL assay according to the manufacturer's instructions. With this methodology, 2×10^6 cells were fixed with 2% paraformaldehyde, permeabilized with 0.1% Triton X-100/0.1% citrate, incubated at 37° C. with terminal deoxynucleotidyl transferase and FITC-dUTP, rinsed and analyzed by flow cytometry. Enhanced FITC signal indicates apoptosis-specific DNA fragmentation. Gavriali, et al, "Identification of programmed cell death in situ via specific labeling of nuclear DNA fragmentation," J Cell Biol 119:493 (1992). Parallel aliquots of unfixed cells were treated with PI and FITC-conjugated anti-CD14 and analyzed by flow cytometry, in order to identify cells with permeable cell membranes (since PI binds to DNA but is excluded from cells with intact plasma membranes) and also to determine the cell-specificity of the apoptotic signal.
A Becton-Dickinson FACSCalibur instrument was used for flow cytometric analysis of cells. Assessment of cell diameter (forward scatter; FCS) and granularity (side scatter; SSC).was carried out on unfixed cells. Discrimination between lymphocytes and monocytes was made possible by their characteristic differences in FSC and SSC, and confirmed by staining monocytes with FITC-labeled anti-CD14 antibodies and lymphocytes with a combination of FITC-conjugated anti-CD3 and PE-conjugated anti-CD19. After incubation with taurolidine (with or without concomitant LPS treatment), cells were rinsed twice in phosphate-buffered saline containing 0.1% bovine serum albumin (PBSA) and 1×10^6 cells were resuspended in 0.1 ml PBSA. After 5 μl FITC-conjugated anti-CD14 was added, cells were incubated in the dark on ice for 15 minutes and then centrifuged at 250×g. Cells were resuspended in 500 μl PBSA containing 5 μg/ml PI and subjected to flow cytometry.
Consequently, TUNEL analysis was performed on PBMC at 3, 6, or 24 hours after treatment with 25 to 100 μg/ml taurolidine. Aliquots of harvested cells were also labeled with FITC-conjugated anti-CD14 antibodies and PI, which allowed identification of monocytes (CD14-positive cells) and cells with damaged cell membranes (PI-positive cells). […] Thus, nearly 75% of the monocytes were TUNEL-positive following treatment with 100 μg/ml taurolidine for six hours. Confirmation that the TUNEL-positive cells were monocytes was obtained by staining with FITC-conjugated anti-CD14.
^a Analysis by flow cytometry after staining cells with FITC-conjugated
anti-CD14 and PI, and processing for TUNEL. Data are mean ± SD of two
^b Percent of cells present in the TUNEL-negative region in control

Turning to `O=S1(=O)CCN(CN2CCS(=O)(=O)NC2)CN1` [taurolidine, 4,4'-methylenebis(perhydro-1,2,4-thiadiazin 1,1-dioxide)], the “trypan blue staining during 4 day growth” value in data set [1] was “did not demonstrate a significant increase in trypan blue staining”; in data set [1] (listed as Taurolidine), “cells remained trypan blue negative”. Further, in data set [2], the “decrease in FSC” value is “approximately 30%”. In data set [3] (Homo sapiens, Lymphocyte, lymphocytes, 25 μg/ml, percent of control, read-out: % TUNEL-Negative), the viability at 25 µg/mL worked out at 100 ± 7%. In data set [3] (Homo sapiens, Lymphocyte, lymphocytes, 50 μg/ml, percent of control, read-out: % TUNEL-Negative), the viability at 50 µg/mL worked out at 99.8 ± 3.4%. The viability at 100 µg/mL in data set [3] (Homo sapiens, Lymphocyte, lymphocytes, 100 μg/ml, percent of control, read-out: % TUNEL-Negative) stood at 102 ± 3.1%. For the same compound, the “cells remaining TUNEL-negative” value in data set [3] (lymphocytes, up to 100 μg/ml taurolidine) is given as around 100%. Also, the apoptosis in lymphocytes entry in data set [3] (up to 100 μg/ml taurolidine, culture medium) is recorded as “did not induce detectable apoptosis”.

These data come from US6303596A, “Use of taurolidine for treatment of leukemias” (priority 2000, dated 2001).
